Laboratory results published in patent US12103941B2, “Radiation-activatable platinum complex, its preparation and therapeutic use” (City University of Hong Kong, priority 2022, dated 2024).

Assays:
[1] = Stability of complex 1 in the dark (HPLC); type: physicochemical; conditions: 10 μM, PBS pH 7.4, RPMI-1640 culture medium and A2780 cell lysate, no radiation
Description: The stability of complex 1, i.e., complex 1 in phosphate buffer saline (PBS) buffer, cell culture medium such as RPMI-1640, and cell lysate in the dark (i.e., in the absence of radiation) was determined. To determine the stability of complex 1 in PBS, complex 1 (10 μM) was dissolved in PBS buffer (pH 7.4, 1% DMF) and incubated at 310 K in the dark. At 24 h, the sample was analyzed by HPLC to determine the percentage of Pt(IV) remained. To determine the stability of complex 1 in complete RPMI-1640 culture medium (containing 10% FBS, 2 mM L-Glutamine, and 100 IU mL^−1 penicillin/streptomycin) or cell lysate (from A2780 cells by 1% triton X-100 lysis, protein concentration adjusted to 1.5 mg mL^−1), complex 1 was dissolved in these two solutions, respectively (with 1% DMF). At determined time intervals, 50 μL of samples were taken out and diluted with 200 μL MeOH with subsequent centrifugation at 14,000×g to remove proteins, and then the supernatant was analyzed by HPLC.

[2] = Sono-activation (sono-induced reduction) of complex 1 in PBS, HPLC; type: physicochemical; conditions: 4 W
Description: The sono-activation property of complex 1 was investigated. A PBS solution (with 1% DMF) containing 10 μM complex 1 with or without 5 mM sodium ascorbate (i.e. the sample), was continuously treated with ultrasound (1.75 MHz, 4 W) for a total period of time of 60 min. The sample temperature was monitored with an FLIR thermographic camera and maintained at 37° C. throughout the experiment. […] (FIGS. 6C to 6E), indicating the reduction of Pt(IV) to Pt(II) along with the dissociation of the axial ligand 1 and hydroxide ligand upon sono-activation (i.e. complex 1 undergoes a sono-induced reduction).

[3] = Photo-activation of complex 1 by 808 nm laser, HPLC; type: physicochemical; conditions: 10 μM in PBS (1% DMF), 5 mM ascorbate, laser 808 nm, 3.3 mW/cm^2, 15 min
Description: The inventors have further investigated if complex 1 could be activated by other types of radiation such as EM radiation, in particular light such as infrared light. A PBS buffer solution (with 1% DMF) containing 10 μM complex 1 with 5 mM ascorbate in a quartz cuvette was irradiated with a laser (808 nm, 3.3 mW/cm^2) for 15 min under stirring. The sample was analysed by HPLC. […] In view of the similar profiles, the inventors believe that complex 1 would also release singlet oxygen upon photo-activation along with the aforementioned photo-induced reduction.

HeLa cells = experiment: Cytotoxicity, MTT assay, HeLa cells; type: cell-based, human; conditions: IC50 without vs with radiation
Description: (§1) The biological activity of complex 1 was evaluated. Human breast carcinoma MCF-7 cells, human cervix carcinoma HeLa cells, mammary breast carcinoma 4T1 cells, human lung carcinoma A549 cells, and cisplatin-resistant A549cisR cells were cultured in DMEM containing 10% FBS and 100 IU mL^−1 penicillin/streptomycin. Human ovarian carcinoma A2780 and A2780cisR cells were cultured in RPMI-1640 containing 10% FBS, 2 mM L-glutamine, and 100 IU mL^−1 penicillin/streptomycin. Human lung fibroblast MRC-5 cells were cultured in MEM containing 10% FBS, 1% NEAA, 1% L-Glutamine, 1% sodium pyruvate, and 100 IU mL^−1 penicillin/streptomycin. In every two passages of A2780cisR and A549cisR cells, 5 μM of cisplatin was added to maintain the platinum resistance. All the cells were cultured in humidified incubators at 37° C. with 5% CO2. Cell counting was performed with a hemocytometer. Cytotoxicity test was performed by exposing the cancer cells with complex 1. The viability of cancer cells exposed was evaluated by means of MTT assay. Specifically, the cells were first pre-seeded in 6-well plates until the confluency reached 80%. Then, the medium was removed and replaced with fresh medium containing different concentrations of complex 1 with 0.5% DMF (0, 2.5, 5, 12.5, 25, or 40 μM). After 30 min, the medium was aspirated, the well was washed with PBS for three times. […]

[4] = test system: different cancer cell lines (MCF-7, HeLa, 4T1, A549, A549cisR, A2780, A2780cisR); experiment: Cytotoxicity, MTT assay, all tested cancer cell lines (FIG. 9); type: cell-based
Description: as §1

[5] = test system: Human lung fibroblast MRC-5 cells; experiment: Cell viability of normal MRC-5 cells (FIG. 10); type: cell-based; conditions: absence of ultrasound, 24 h
Description: as §1

With `CCCN1/C(=C/C=C2\CCCC(/C=C/C3=[N+](CCC)c4ccccc4C3(C)C)=C2Oc2ccc(CCC(=O)[O][Pt]3([NH2])([NH2])([OH])[O]C(=O)C4(CCC4)C(=O)[O]3)cc2)C(C)(C)c2ccccc21` [complex 1, cyaninplatin] as the molecule, how does the “time complex is stable in the dark (single HPLC peak)” value [1] read?
The value was ≥ 6 h.

What about the “complex 1 reduced (to Pt(II)) after sono-activation” value ([2]; 10 μM in PBS (1% DMF), 5 mM ascorbate, ultrasound 1.75 MHz, about 60 min, 37° C.) of the same molecule?
Its value is “about 95%”.

And the “conditions required for sono-induced reduction” value ([2]; 10 μM in PBS, with or without 5 mM ascorbate, with or without ultrasound 1.75 MHz)?
Its value is “only occurs under the condition where both ascorbate and ultrasound are present”.

What about the “photo-activation / photo-induced reduction to Pt(II) complex” value [3] of the same molecule?
Its value is “can be photo-activated”.

And the “enhancement of cytotoxicity upon exposure to radiation” value (HeLa cells)?
Its value is “about 6 times”.

What about the “activity on tested cells upon ultrasound treatment” value ([4]; ultrasound 3.5 W, 15 min) of the same molecule?
The value was “very active”.

What about the “toxicity to tested cells without ultrasound treatment” value ([4]; without the ultrasound treatment) of the same molecule?
The value was “generally non-toxic”.

What about the “toxicity to normal MRC-5 cells” value [5] of the same molecule?
Its value is “non-toxic”.
